Laboratory results: patent publication US20250144107A1, “USE OF A PIKFYVE INHIBITOR IN COMBINATION WITH IMMUNOTHERAPY” (The Regents of the University of Michigan, priority 2023, published 2025)

Experiments:
[1] = tested on: syngeneic pancreatic tumors established with orthotopic injection of KPC1361 cells; assay: Orthotopic KPC1361 pancreatic tumor model with anti-PD-1; assay type: in vivo, mice; settings: apilimod 60 mg/kg, ESK981 30 mg/kg oral gavage
Text: FIG. 8B is a line graph of the efficacy of α-PD1 in combination with apilimod or ESK981 against pancreatic tumors from orthotopically injected KPC1361 cells to mice.
FIG. 8C (Left) is a line graph of flow cytometry measuring surface expression of MHC-I on GPF-labelled cancer cells in pancreatic tumors treated with α-PD1 in combination with apilimod or ESK981; (Right) is a bar graph of quantification of flow cytometry measuring surface expression of MHC-I on GPF-labelled cancer cells in pancreatic tumors treated with α-PD1 in combination with apilimod or ESK981.
FIG. 8D (left) is a series of 3 images of flow cytometry measuring the amount of total CD8^+ T cells, and proportion of activated or proliferative CD8^+ T cells in pancreatic tumors treated with α-PD1 in combination with apilimod or ESK981; (Right) are bar graphs of flow cytometry quantification of the amount of total CD8^+ T cells, and proportion of activated or proliferative CD8^+ T cells in pancreatic tumors treated with α-PD1 in combination with apilimod or ESK981.
FIG. 9A is a line graph of the survival of pancreatic tumor bearing mice, orthotopically injected with KPC1361 cells and treated with an immune checkpoint inhibitor, apilimod, or ESK981 individually, or in combination with each other.
All experimental protocols were conducted after approval by the U-M Institutional Animal Care & Use Committee. […] KPC1361 cells were resuspended in PBS, 1:1 (v/v) mixed with Matrigel (BD Biosciences; catalog #: 354248), and orthotopically injected to the pancreases at 250,000 cells in a total volume of 50 μl per injection. B16-F10 cells were resuspended in PBS and injected subcutaneously to both flanks at 400,000 cells per injection. For ACT study, B16-F10-OVA cells were resuspended in PBS and injected subcutaneously to both flanks at 300,000 cells per injection. For lung metastasis experiment, B16-BL6 cells were resuspended in PBS, 1:1 (v/v) mixed with Matrigel and injected subcutaneously to both flanks at 400,000 cells per injection. Fifteen days after tumor cell inoculation, the primary tumors were removed surgically under anesthesia. Thirty-five days after removal of the primary tumors, lung tissues were extracted and fixed, and lung metastasis was quantified. C57BL/6 mice were acquired from The Jackson Laboratory. Measurement of tumor volume began 5-9 days post tumor cell implantation and was performed 2-3 times per week using calipers. Volume measurements of pancreatic tumors were also achieved with calipers, as reported See, e.g., Koikawa, K. et al., Cell 2021; 184(18):4753-4771. In brief, mice were subjected to anesthesia with 2-3% isoflurane, and the abdominal wall then became soft and loose. […] Volume (mm^3) of tumor was calculated using (W^2×L)/2, where W stood for minor tumor axis and L for the major. […]

[2] = Body weight of treated tumor-bearing mice; assay type: in vivo; settings: preclinical models; single agents and in combination with immunotherapies
Text: FIG. 9B is a line graph of the body weight of pancreatic tumor bearing mice, orthotopically injected with KPC1361 cells and treated with an immune checkpoint inhibitor, apilimod, or ESK981 individually, or in combination with each other.
FIG. 11A is a line graph of mice body weight treated with adoptive cell therapy (ACT) in combination with apilimod or ESK981.
FIG. 11B is a line graph of mice body weight treated with personalized vaccines in combination with apilimod or ESK981

[3] = tested on: B16-BL6 melanoma model; assay: B16-BL6 lung metastasis model after removal of primary tumors; assay type: in vivo, mice; settings: for efficacy of ICB to inhibit metastasis: combination with ICB (anti-PD-1 plus anti-CTLA-4); for lung metastasis: treatment alone
Experimental: FIG. 8A (Left) is a box plot of tumor volume of the efficacy of immune checkpoint inhibitors in combination with apilimod or ESK981 treatment against metastasis in a subcutaneous B16BL6 tumor; (Middle) is a series of 12 images of the efficacy of immune checkpoint inhibitors in combination with apilimod or ESK981 treatment against metastasis in a subcutaneous B16BL6 tumor; (Right) is a box plot of the counts of lung tumor metastasis treated with immune checkpoint inhibitors in combination with apilimod or ESK981.
All experimental protocols were conducted after approval by the U-M Institutional Animal Care & Use Committee. […] KPC1361 cells were resuspended in PBS, 1:1 (v/v) mixed with Matrigel (BD Biosciences; catalog #: 354248), and orthotopically injected to the pancreases at 250,000 cells in a total volume of 50 μl per injection. B16-F10 cells were resuspended in PBS and injected subcutaneously to both flanks at 400,000 cells per injection. For ACT study, B16-F10-OVA cells were resuspended in PBS and injected subcutaneously to both flanks at 300,000 cells per injection. For lung metastasis experiment, B16-BL6 cells were resuspended in PBS, 1:1 (v/v) mixed with Matrigel and injected subcutaneously to both flanks at 400,000 cells per injection. Fifteen days after tumor cell inoculation, the primary tumors were removed surgically under anesthesia. Thirty-five days after removal of the primary tumors, lung tissues were extracted and fixed, and lung metastasis was quantified. C57BL/6 mice were acquired from The Jackson Laboratory. Measurement of tumor volume began 5-9 days post tumor cell implantation and was performed 2-3 times per week using calipers. Volume measurements of pancreatic tumors were also achieved with calipers, as reported See, e.g., Koikawa, K. et al., Cell 2021; 184(18):4753-4771. In brief, mice were subjected to anesthesia with 2-3% isoflurane, and the abdominal wall then became soft and loose. The mouse was next held with the left hand allowing for the palpation and assessment of the firm pancreatic tumor mass with the right hand. […] Volume (mm^3) of tumor was calculated using (W^2×L)/2, where W stood for minor tumor axis and L for the major. All mice were maintained in a pathogen-free condition, with a 12-hour light/dark cycle.
For ICB treatment in KPC1361 pancreatic tumor-bearing mice, randomization was performed when tumors reached approximately 100 mm^3. For ACT and vaccine experiments, the mice were randomized when tumors reached approximately 35 mm^3. Anti-mouse PD-1 (clone RMP1-14) and its isotype control were purchased from BioXcell, administered intraperitoneally at 250 μg per mouse, biweekly. […]

SMILES | intratumoral activated CD8+ T cells [1] | tumor-specific MHC-I surface expression [1] | safety profile [2] | efficacy of ICB to inhibit metastasis [3] | lung metastasis [3]
CC(C)Cn1c2ccc(Nc3ncccn3)cc2c2c3c(c4c(c21)CCc1nn(C)cc1-4)C(=O)NC3 [ESK981, 13-isobutyl-4-methyl-10-(pyrimidin-2-ylamino)-1,2,4,7,8,13-hexahydro-6H-indazolo[5,4-a]pyrrolo[3,4-c]carbazol-6-one] | increase | upregulation | favorable safety profiles | strongly enhanced | reduction of lung metastasis
Cc1cccc(/C=N/Nc2cc(N3CCOCC3)nc(OCCc3ccccn3)n2)c1 [apilimod, N-[(E)-(3-methylphenyl)methylideneamino]-6-morpholin-4-yl-2-(2-pyridin-2-ylethoxy)pyrimidin-4-amine] | increase | upregulation | favorable safety profiles | strongly enhanced | reduction of lung metastasis
